These results are taken from ChEMBL document CHEMBL1146435, “Anserinones A and B: new antifungal and antibacterial benzoquinones from the coprophilous fungus Podospora anserina” (1997).

One assay has as its system Sordaria fimicola. Kind of assay: Antimicrobial activity against Sordaria fimicola assessed as reduction in radial growth rate at 200 ug/disk by inoculation disk assay. Type of assay: functional. On the set-up: scale not given: the % may be the effect or the level left.
A further assay has as its system Ascobolus. Kind of assay: Antimicrobial activity against Ascobolus furfuraceus assessed as reduction in radial growth rate at 200 ug/disk by inoculation disk assay. Also on record: scale not given: the % may be the effect or the level left. Type of assay: functional.
The subject of another assay is Bacillus subtilis. Kind of assay: Antimicrobial activity against Bacillus subtilis ATCC 6051 at 200 ug/disk. The class given is functional. The note with it: read-out: IZ.
A further assay deals with Staphylococcus aureus. Kind of assay: Antimicrobial activity against Staphylococcus aureus ATCC 29213 at 200 ug/disk. The class given is functional. The conditions noted are these: read-out: IZ.
A further assay relates to Candida albicans. Kind of assay: Antimicrobial activity against Candida albicans ATCC 90029 at 200 ug/disk. The class given is functional, organism-based.
The nature of assay [1]: Cytotoxicity against human NCI60 cells. The class given is functional.

Active and inactive are the calls of the source. No cut-off for these calls is given here.

As for `COC1=CC(=O)C(C)=C(CC(C)=O)C1=O` [ANSERINONE A], the results for the Activity in the assay with Sordaria fimicola and in the assay with Ascobolus were 60% and 100%, respectively. Moreover, the zone of inhibition at 200 µg/disc with Bacillus subtilis and in the assay on Staphylococcus aureus was 40 mm in each case. Also, the result with Candida albicans was inactive. The compound further displayed a GI50 in assay [1] of 9.1 µM.
In the case of `COC1=CC(=O)C(C)=C(C[C@H](C)O)C1=O` [ANSERINONE B], the results for the Activity in the assay with Sordaria fimicola and with Ascobolus were 50% and 37%, respectively. Besides, the zone of inhibition at 200 µg/disc in the assay with Bacillus subtilis and with Staphylococcus aureus was 40 mm each time. Moreover, in the assay with Candida albicans, the result was inactive. In addition, the concentration for 50% growth inhibition (GI50) in assay [1] is 21 µM.

By GI50 is commonly meant the concentration giving 50% growth inhibition.
